# Measurements taken from US20240190868A1, “SOS1 INHIBITORS” (Acerand Therapeutics (USA) Limited, priority 2022, published 2024).
# pIC50: −log10 of the molar value.
# System: cellular pERK in NCI-H1975 cells (EGFR/L858R-T790M)
# Test: pERK potency assay (In Cell ELISA)
# Format: cell-based
# Details: Homo sapiens, 1 h compound incubation
# Description: The assay measures the ability of a compound to inhibit SOS1 function in cells. SOS1 activates RAS proteins by catalyzing the conversion of RAS GDP to RAS GTP in response to receptor tyrosine kinase activation. Activation of RAS induces a sequence of cellular signaling events that result in increased phosphorylation of ERK at Threonine 202 and Tyrosine 204 (pERK). The procedure (i.e., In Cell ELISA as described below) measures the level of cellular pERK in response to a test compound in NCI-H1975 cells (EGFR/L858R-T790M).
# First, NCI-H1975 cells were grown and maintained using media and procedures recommended by the ATCC. A day before compound addition, cells were plated in poly-D-lysine coated 96-well cell culture plates (Corning® BioCoat® Cat #356640) at 25000 cells/well/100 μL and grown overnight in an incubator at 37° C. with 5% CO2. A solution of a test compound was prepared with 3-fold serial dilutions in DMSO having a top concentration of 6 mM. On the day of the assay, 50 μL of a test compound dilution in media was added to each well of cell culture plate with a final compound concentration in the range of 0.001 μM to 20 μM. After addition of the compound, cells were incubated for 1 h at 37° C. with 5% CO2, after which the culture medium was removed. Cells were fixed with 4% formaldehyde in phosphate-buffered saline (PBS) and incubated at RT for 20 min. The plate was washed three times with PBST (PBS with 0.05% Tween®-20), followed by incubation with 100 μL of pre-cooled methanol at −20° C. for 20 min. After incubation, methanol was removed. The plate was again washed with PBST. Cells were then permeabilized with 100 μL/well of 0.1% Triton X-100 in PBS at RT for 20 min and then quenched with a quenching buffer (PBST containing 1% H2O2 and 0.1% sodium azide) for 20 min at RT with gentle shaking. After washing once with PBST, a blocking buffer (250 uL/well, Pierce™ Protein-Free-PBS Blocking Buffer, Cat #37572) was then added to the cells for 1-h incubation at RT, followed by an anti-pERK antibody (cell signaling, 1:1000 dilution in 5% BSA in PBST) incubation overnight at 4° C. and a secondary antibody-HRP (Jackson immunoresearch, 1:3000 dilution in 5% BSA in PBST) incubation at RT for 1 h. PBST wash was carried out after each step three times. Before the addition of a substrate (Advansta ELISABright™), the plate was washed with PBS twice to remove detergent residues. The Cellular pERK level was determined using the microplate reader (Biotek Synergy™ H1) to detect the chemiluminescence signal. IC50 was determined by fitting a 4-parameter sigmoidal concentration-response model.
row,SMILES,pIC50
1,Cc1c([C@@H](C)/N=c2\nc(C)n(C(C)C)c3cnc(N4CCOCC4)cc23)cccc1C(F)(F)F [Compound 78],> 7.00
2,Cc1c([C@@H](C)/N=c2\nc(C)n(C3CC3)c3cnc(N4CCOCC4)cc23)cccc1C(F)(F)F [Compound 79],> 7.00
3,"Cc1c([C@@H](C)/N=c2\nc(C)n(C)c3cnc(N4CCn5c(C(F)F)cnc5C4)cc23)cccc1C(F)(F)F [Compound 80, (R,Z)-6-(3-(difluoromethyl)-5,6-dihydroimidazo[1,2-a]pyrazin-7(8H)-yl)-1,2-dimethyl-N-(1-(2-methyl-3-(trifluoromethyl)phenyl)ethyl)pyrido[3,4-d]pyrimidin-4(1H)-imine]",> 7.00
4,"CC(=O)N1CCC(O)(c2cc3/c(=N/[C@H](C)c4cccc(C(F)(F)F)c4C)ncn(C)c3c(=O)n2C)CC1 [Compound 81, (R,Z)-6-(1-acetyl-4-hydroxypiperidin-4-yl)-1,7-dimethyl-4-((1-(2-methyl-3-(trifluoromethyl)phenyl)ethyl)imino)-1,7-dihydropyrido[3,4-d]pyrimidin-8(4H)-one]",> 7.00
5,"CC(=O)N1CC=C(c2cc3/c(=N/[C@H](C)c4cccc(C(F)(F)F)c4C)ncn(C)c3c(=O)n2C)CC1 [Compound 82, (R,Z)-6-(1-acetyl-1,2,3,6-tetrahydropyridin-4-yl)-1,7-dimethyl-4-((1-(2-methyl-3-(trifluoromethyl)phenyl)ethyl)imino)-1,7-dihydropyrido[3,4-d]pyrimidin-8(4H)-one]",> 7.00
6,"COc1cc2c(cc1O[C@H]1CCOC1)/c(=N/[C@H](C)c1cccc(C(F)(F)F)c1C)nc(C)n2C [Compound 84, (Z)-7-methoxy-1,2-dimethyl-N—((R)-1-(2-methyl-3-(trifluoromethyl)phenyl)ethyl)-6-(((S)-tetrahydrofuran-3-yl)oxy)quinazolin-4(1H)-imine]",> 7.00
7,"CC(=O)NCC#Cc1cc2/c(=N/[C@H](C)c3cccc(C(F)F)c3F)nc(C)n(C)c2cn1 [Compound 85, (R,Z)—N-(3-(4-((1-(3-(difluoromethyl)-2-fluorophenyl)ethyl)imino)-1,2-dimethyl-1,4-dihydropyrido[3,4-d]pyrimidin-6-yl)prop-2-yn-1-yl)acetamide]",> 7.00
8,"CC(=O)N1CCN(C(=O)c2cc3/c(=N/[C@H](C)c4cccc(C(F)F)c4F)nc(C)n(C)c3cn2)CC1 [Compound 89, (R,Z)-1-(4-(4-((1-(3-(difluoromethyl)-2-fluorophenyl)ethyl)imino)-1,2-dimethyl-1,4-dihydropyrido[3,4-d]pyrimidine-6-carbonyl)piperazin-1-yl)ethan-1-one]",> 7.00
9,"CC(=O)N1CCN2c3cc4/c(=N/[C@H](C)c5cccc(C(F)F)c5F)ncn(C)c4cc3OC[C@H]2C1 [Compound 92, 1-((R,Z)-11-(((R)-1-(3-(difluoromethyl)-2-fluorophenyl)ethyl)imino)-8-methyl-1,2,4a,5,8,11-hexahydropyrazino[1′,2′:4,5][1,4]oxazino[3,2-g]quinazolin-3(4H)-yl)ethan-1-one]",> 7.00
10,"Cc1n/c(=N\[C@H](C)c2cccc(C(F)F)c2F)c2cc(C3(C(F)F)CC3)ncc2n1C [Compound 94, (R,Z)—N-(1-(3-(difluoromethyl)-2-fluorophenyl)ethyl)-6-(1-(difluoromethyl)cyclopropyl)-1,2-dimethylpyrido[3,4-d]pyrimidin-4(1H)-imine]",> 7.00
11,"Cc1n/c(=N\[C@H](C)c2cccc(C(F)F)c2F)c2cc(C3=CCN(S(C)(=O)=O)CC3)ncc2n1C [Compound 97, (R,Z)—N-(1-(3-(difluoromethyl)-2-fluorophenyl)ethyl)-1,2-dimethyl-6-(1-(methylsulfonyl)-1,2,3,6-tetrahydropyridin-4-yl)pyrido[3,4-d]pyrimidin-4(1H)-imine]",> 7.00
12,"CC(=O)NC/C=C/c1cc2/c(=N/[C@H](C)c3cccc(C(F)F)c3F)nc(C)n(C)c2cn1 [Compound 98, N-((E)-3-((Z)-4-(((R)-1-(3-(difluoromethyl)-2-fluorophenyl)ethyl)imino)-1,2-dimethyl-1,4-dihydropyrido[3,4-d]pyrimidin-6-yl)allyl)acetamide]",> 7.00
